Experimental data: ChEMBL document CHEMBL2086302, “An investigation into the structure-activity relationships associated with the systematic modification of the β(2)-adrenoceptor agonist indacaterol” (Bioorg Med Chem Lett, 2012)

Key:
[1] = molecular target: Beta-1 adrenergic receptor (Homo sapiens, UniProt P08588); experiment: Binding affinity to human beta1-adrenoceptor by radioligand binding assay
[2] = molecular target: Beta-2 adrenergic receptor (Cavia porcellus) (UniProt Q8K4Z4); experiment: Agonist activity at beta2-adrenoceptor in guinea-pig tracheal-strip assessed as duration of action on inhibition of electrically-stimulated muscle contraction; assay type: functional, tissue-based; conditions: Trachea
[3] = molecular target: Beta-2 adrenergic receptor (Cavia porcellus, UniProt Q8K4Z4); experiment: Agonist activity at beta2-adrenoceptor in guinea-pig tracheal-strip assessed as inhibition of electrically-stimulated muscle contraction; assay type: functional, tissue-based, Trachea
[4] = molecular target: T1, Beta-2 adrenergic receptor (Homo sapiens, UniProt P07550); experiment: Binding affinity to human beta2-adrenoceptor by radioligand binding assay
Target sequence in this assay (P07550 whole entry): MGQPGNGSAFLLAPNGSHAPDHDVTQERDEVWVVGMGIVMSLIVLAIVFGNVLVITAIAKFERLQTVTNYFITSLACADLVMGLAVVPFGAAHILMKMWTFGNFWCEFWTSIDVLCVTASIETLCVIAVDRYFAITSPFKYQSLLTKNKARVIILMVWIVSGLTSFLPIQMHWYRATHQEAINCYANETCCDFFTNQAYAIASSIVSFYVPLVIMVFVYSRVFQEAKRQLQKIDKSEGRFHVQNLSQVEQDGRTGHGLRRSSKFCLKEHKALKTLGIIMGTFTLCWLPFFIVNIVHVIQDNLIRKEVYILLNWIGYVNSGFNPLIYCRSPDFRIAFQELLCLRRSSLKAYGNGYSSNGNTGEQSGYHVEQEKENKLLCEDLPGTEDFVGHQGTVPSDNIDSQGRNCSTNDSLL

Homo sapiens = species on record: Homo sapiens; experiment: Selectivity ratio of Ki for human beta1-adrenoceptor to Ki for human beta2-adrenoceptor
Rhesus monkey = experiment: Bronchorelaxant activity in rhesus monkey assessed as inhibition of methacholine-induced bronchoconstriction; assay type: functional; conditions: Macaca mulatta
[5] = molecular target: T1, Beta-2 adrenergic receptor; experiment: Intrinsic efficacy at beta2-adrenoceptor in human bronchial smooth-muscle cell by cAMP assay; assay type: functional
Target sequence in this assay (P07550 whole entry, looked up): as the sequence (P07550 whole entry) above

[6] = molecular target: T1, Beta-2 adrenergic receptor; experiment: Kinetic binding affinity to human beta2-adrenoceptor
Target sequence in this assay (P07550 whole entry): as above

[7] = molecular target: T1, Beta-2 adrenergic receptor; experiment: Ratio of indacaterol EC50 to compound EC50 for beta2-adrenoceptor in human bronchial smooth-muscle cell by cAMP assay; assay type: functional
Target sequence in this assay (P07550 whole entry, looked up): as the sequence (P07550 whole entry) above

[8] = molecular target: T1, Beta-2 adrenergic receptor; experiment: Agonist activity at beta2-adrenoceptor in human bronchial smooth-muscle cell by cAMP assay; assay type: functional
Target sequence in this assay (P07550 whole entry): as above

[9] = molecular target: T1, Beta-2 adrenergic receptor; experiment: Ratio of indacaterol Ki to compound Ki for human beta2-adrenoceptor
Target sequence in this assay (P07550 whole entry, looked up): as the sequence (P07550 whole entry) above

D(2) dopamine receptor [10] = molecular target: T2, D(2) dopamine receptor (Homo sapiens, UniProt P14416); experiment: Agonist activity at human dopamine D2 receptor expressed in CHO cells assessed as increase in GTPgamma35S binding by scintillation proximity assay; assay type: functional, cell-based
D(2) dopamine receptor [11] = molecular target: T2, D(2) dopamine receptor; experiment: Intrinsic efficacy at human dopamine D2 receptor expressed in CHO cells assessed as increase in GTPgamma35S binding by scintillation proximity assay relative to dopamine; assay type: functional, cell-based

Sequence of Beta-2 adrenergic receptor (Cavia porcellus) (Q8K4Z4 whole entry, looked up): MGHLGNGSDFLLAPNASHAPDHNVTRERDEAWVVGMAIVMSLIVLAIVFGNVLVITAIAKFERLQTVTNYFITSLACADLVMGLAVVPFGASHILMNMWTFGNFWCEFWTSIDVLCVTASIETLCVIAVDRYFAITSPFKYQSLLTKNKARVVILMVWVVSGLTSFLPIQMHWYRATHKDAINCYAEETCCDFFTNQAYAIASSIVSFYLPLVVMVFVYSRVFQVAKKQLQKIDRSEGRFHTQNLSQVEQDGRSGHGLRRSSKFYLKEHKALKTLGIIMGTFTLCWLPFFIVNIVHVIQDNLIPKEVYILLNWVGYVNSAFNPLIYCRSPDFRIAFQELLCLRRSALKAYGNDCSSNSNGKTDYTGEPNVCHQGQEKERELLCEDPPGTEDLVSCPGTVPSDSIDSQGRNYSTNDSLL
Sequence of Beta-1 adrenergic receptor (P08588 whole entry): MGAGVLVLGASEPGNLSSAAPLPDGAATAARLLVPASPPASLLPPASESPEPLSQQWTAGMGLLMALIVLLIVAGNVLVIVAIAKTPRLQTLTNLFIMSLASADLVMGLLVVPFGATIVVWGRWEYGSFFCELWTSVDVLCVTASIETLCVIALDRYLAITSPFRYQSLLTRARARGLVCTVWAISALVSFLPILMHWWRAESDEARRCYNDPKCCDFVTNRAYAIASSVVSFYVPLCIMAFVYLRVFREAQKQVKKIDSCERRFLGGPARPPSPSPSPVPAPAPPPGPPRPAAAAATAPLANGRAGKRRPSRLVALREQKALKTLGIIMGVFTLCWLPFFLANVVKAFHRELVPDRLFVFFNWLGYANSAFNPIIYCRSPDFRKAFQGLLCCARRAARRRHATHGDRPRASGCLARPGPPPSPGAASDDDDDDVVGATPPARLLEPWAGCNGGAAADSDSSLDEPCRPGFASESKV
T2 sequence (P14416 whole entry): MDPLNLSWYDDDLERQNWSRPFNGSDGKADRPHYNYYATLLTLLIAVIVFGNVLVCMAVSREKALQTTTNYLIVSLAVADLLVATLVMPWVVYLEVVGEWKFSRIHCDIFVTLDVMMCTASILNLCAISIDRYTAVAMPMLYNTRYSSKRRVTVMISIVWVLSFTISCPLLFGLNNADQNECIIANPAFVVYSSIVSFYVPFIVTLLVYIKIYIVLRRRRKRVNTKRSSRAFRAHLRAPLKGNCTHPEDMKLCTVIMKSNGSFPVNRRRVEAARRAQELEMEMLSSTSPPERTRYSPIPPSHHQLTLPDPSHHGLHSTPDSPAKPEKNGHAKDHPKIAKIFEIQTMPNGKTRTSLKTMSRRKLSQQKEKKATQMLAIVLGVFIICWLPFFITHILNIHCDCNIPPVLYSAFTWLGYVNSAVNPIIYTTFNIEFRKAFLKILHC
Sequence of Beta-2 adrenergic receptor (Cavia porcellus, UniProt Q8K4Z4) (Q8K4Z4 whole entry): as the sequence (Q8K4Z4 whole entry, looked up) above

Structure (SMILES) | Ki [1] [nM] | TIME [2] [h] | Ki [4] [nM] | Ratio Ki (Homo sapiens) | also measured
CCc1cc2c(cc1CC)CC(NC[C@H](O)c1ccc(O)c3c1CCC(=O)N3)C2 | 183 | 0.542 | 45 | 4.1 | IC50 [3]: 3.9 nM; ED80 (Rhesus monkey): 0.0532 mg/kg
Cc1c(C)c(C)c2c(c1C)CC(NC[C@H](O)c1ccc(O)c3[nH]c(=O)ccc13)C2 | 421 | – | 175 | 2.4 | –
CCc1cc2c(cc1CC)CC(C)(NC[C@H](O)c1ccc(O)c3[nH]c(=O)ccc13)C2 | 1.9 | – | 0.6 | 3.2 | Efficacy [5]: 116%; Kd [6]: 0.26 nM; Ratio EC50 [7]: 7.3; EC50 [8]: 0.28 nM; Ratio Ki [9]: > 10
NC(=O)C(c1ccccc1)(c1ccccc1)[C@@H]1CCN(CCc2ccc3c(c2)CCO3)C1 [DARIFENACIN] | – | 0.5 | – | – | Efficacy [5]: 85%
CCc1cc2c(cc1CC)CC(NCCc1ccc(O)c3[nH]c(=O)ccc13)C2 | 478 | 2.18 | 261 | 1.8 | EC50 (D(2) dopamine receptor [10]): > 10000 nM; IC50 [3]: 240 nM
CCCCc1ccc2c(c1)CC(NC[C@H](O)c1ccc(O)c3[nH]c(=O)ccc13)C2 (some centres undefined) | 259 | – | 19.4 | 13.4 | –
CCc1cc2c(cc1CC)CC(NCC(O)c1c(C)cc(O)c3[nH]c(=O)ccc13)C2 (racemic) | > 10000 | – | 515 | > 19 | –
CCc1cc2c(cc1CC)CC(NCC(O)c1ccc(O)c3[nH]c(=O)c(C)cc13)C2 (racemic) | 227 | – | 382 | 0.59 | –
O=c1[nH]c2c(O)ccc(CCNCCS(=O)(=O)CCCOCCc3ccccc3)c2s1 [SIBENADET] | 3920 | – | 4 | 981 | EC50 (D(2) dopamine receptor [10]): 4.5 nM; Efficacy (D(2) dopamine receptor [11]): 106%
